This assay concerns the target T1, small-conductance Ca2+-activated K+ channels (SK channels, subtype 2) (Homo sapiens, UniProt Q9H2S1).
T1 construct: expressed in transfected cells; host or cells: HEK293
The assay is described as follows: whole-cell patch-clamp of ionic current through SK2 channels in HEK293 cells (SC100). In kind it is cell-based. Particulars: whole-cell patch-clamp, HEK293 cells expressing SK2 channels; concentration that increases the basal current by 100%. The method, boiled down: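 SC100, the concentration doubling basal current (a 100% increase), was taken from SK2 currents recorded by whole-cell patch-clamp in SK2-expressing HEK293 cells.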
For orientation: Patch clamp records ionic current or voltage across a cell membrane.
`COc1cc(-n2nc(C)cc2C)nc(NC2CCC(F)(F)CC2)n1` [NSSy6519, N-(4,4-difluorocyclohexyl)-4-(3,5-dimethyl-1H-pyrazol-1-yl)-6-methoxy pyrimidin-2-amine]: the “SC100 (μM)” value is “++ (++ means 200 nM-1000 nM)”. Regarding `Cc1ccn(-c2cc(N3CC4(COC4)C3)nc(NC3CCC(F)(F)CC3)n2)n1` [NSSy6522], the “SC100 (μM)” value is listed as “++ (++ means 200 nM-1000 nM)”. As for `Cc1ccnn1-c1cc(N2CC3(COC3)C2)nc(NC2CCC(F)(F)CC2)n1` [NSSy6523], the “SC100 (μM)” value was “+ (+ means >1 uM)”. Consider `Cc1ccnn1-c1cc(N2CCOCC2)nc(NC2CCC(F)(F)CC2)n1` [NSSy6525], for which the “SC100 (μM)” value is on record as “+ (+ means >1 uM)”.

As for `Cc1ccn(-c2nc(NC3CCC(C#N)CC3)cc(N3CCOCC3)n2)n1` (stereo not drawn) [NSSy6526], the “SC100 (μM)” value was “+ (+ means >1 uM)”. The same measure for `COC1CCC(Nc2cc(N3CCOCC3)nc(-n3ccc(C)n3)n2)CC1` (stereo not drawn) [NSSy6529, N-(4-methoxycyclohexyl)-2-(3-methyl-1H-pyrazol-1-yl)-6-morpholinopyrimidin-4-amine]: “+ (+ means >1 uM)”; for `Cc1ccn(-c2nc(N[C@H]3CC[C@H](C(N)=O)CC3)cc(N3CCOCC3)n2)n1` [NSSy6539]: “+ (+ means >1 uM)”; for `Cc1ccn(-c2nc(NC3CCC(N(C)C)CC3)cc(N3CCOCC3)n2)n1` (stereo not drawn) [NSSy6540]: “+ (+ means >1 uM)”.

Take `Cc1ccn(-c2nc(NC3CCC(C(N)=O)CC3)cc(N3CCOCC3)n2)n1` (stereo not drawn) [NSSy6541]: the “SC100 (μM)” value is on record as “+ (+ means >1 uM)”. `Cc1ccn(-c2nc(NC3CCC(N)CC3)cc(N3CCOCC3)n2)n1` (stereo not drawn) [NSSy6550]: the “SC100 (μM)” value was “+ (+ means >1 uM)”. The value for `Cc1csc(-c2cc(N3CC4(COC4)C3)nc(NC3CCC(F)(F)CC3)n2)n1` [NSSy6558, N-(4,4-difluorocyclohexyl)-4-(4-methylthiazol-2-yl)-6-(2-oxa-6-azaspiro [3.3]heptan-6-yl)pyrimidin-2-amine] was “++ (++ means 200 nM-1000 nM)”; that for `Cc1csc(-c2cc(C(O)c3ncco3)cc(NC3CCC(F)(F)CC3)n2)n1` (stereo not drawn) [NSSy6563] was “++ (++ means 200 nM-1000 nM)”.

For the compound `Cc1ccn(-c2cc(N3CCOCC3)cc(NC3CCC(F)(F)CC3)n2)n1` [NSSy6573], the “SC100 (μM)” value is recorded as “++ (++ means 200 nM-1000 nM)”. The same measure for `COc1cc(-n2ccc(C)n2)nc(NC2CCC(F)(F)CC2)n1` [NSSy6574]: “+ (+ means >1 uM)”; for `Cc1ccn(-c2cc(C(O)c3nnc(C)o3)cc(NC3CCC(F)(F)CC3)n2)n1` (stereo not drawn) [NSSy6576]: “++ (++ means 200 nM-1000 nM)”; for `Cc1ccn(-c2cc(N3CC4(CCC4)C3)nc(NC3CCC(F)(F)CC3)n2)n1` [NSSy6580]: “+ (+ means >1 uM)”.

For `Cc1ccn(-c2cc(N3CCC4(CCOCC4)C3)nc(NC3CCC(F)(F)CC3)n2)n1` [NSSy6581], the “SC100 (μM)” value is recorded as “+ (+ means >1 uM)”.

With `Cc1ccn(-c2cc(N3CC4CCCC4C3)nc(NC3CCC(F)(F)CC3)n2)n1` (stereo not drawn) [NSSy6584], the “SC100 (μM)” value is “+ (+ means >1 uM)”. The value for `Cc1ccn(-c2cc(N3CC4COCC4C3)nc(NC3CCC(F)(F)CC3)n2)n1` (stereo not drawn) [NSSy6585] was “+ (+ means >1 uM)”; that for `Cc1cc(-c2nc(C)cs2)nc(NC2CCC(F)(F)CC2)n1` [NSSy6590] was “++ (++ means 200 nM-1000 nM)”.

For `Cc1cc(-n2ccc(C(F)(F)F)n2)nc(NC2CCC(F)(F)CC2)n1` [NSSy6591], the “SC100 (μM)” value is reported as “+ (+ means >1 uM)”.

As to `Cc1cc(-n2nc(C)cc2C)nc(NC2CCC(F)(F)CC2)n1` [NSSy6593], the “SC100 (μM)” value is given as “++ (++ means 200 nM-1000 nM)”. Turning to `CC(=O)N1CCN(c2cc(-c3nc(C)cs3)nc(NC3CCC(F)(F)CC3)n2)CC1` [NSSy6598, 1-(4-(2-((4,4-difluorocyclohexyl)amino)-6-(4-methylthiazol-2-yl)pyrimidin-4-yl)piperazin-1-yl)ethan-1-one], the “SC100 (μM)” value is recorded as “++ (++ means 200 nM-1000 nM)”. The value for `CC(=O)N1CCN(c2cc(-n3ccc(C(F)(F)F)n3)nc(NC3CCC(F)(F)CC3)n2)CC1` [NSSy6607] was “++ (++ means 200 nM-1000 nM)”.

For the compound `COC(C)c1cc(-n2nc(C)cc2C)nc(NC2CCC(F)(F)CC2)n1` (stereo not drawn) [NSSy6612], the “SC100 (μM)” value is “+ (+ means >1 uM)”. With `COC(C)c1cc(-n2ccc(C(F)(F)F)n2)nc(NC2CCC(F)(F)CC2)n1` (stereo not drawn) [NSSy6613], the “SC100 (μM)” value is “+ (+ means >1 uM)”. As for `CC(O)c1cc(-n2ccc(C(F)(F)F)n2)nc(NC2CCC(F)(F)CC2)n1` (stereo not drawn) [NSSy6614], the “SC100 (μM)” value is recorded as “+ (+ means >1 uM)”.

For `CCOc1cc(-n2ccc(C)n2)nc(NC2CCC(F)(F)CC2)n1` [NSSy6625], the “SC100 (μM)” value was “+ (+ means >1 uM)”. `CC(=O)N1CCN(c2cc(-n3ccc(C)n3)nc(NC3CCC(F)(F)CC3)n2)CC1` [NSSy6629, 1-(4-(2-((4,4-difluorocyclohexyl)amino)-6-(3-methyl-1H-pyrazol-1-yl)pyrimidin-4-yl)piperazin-1-yl)ethan-1-one]: the “SC100 (μM)” value is “++ (++ means 200 nM-1000 nM)”. The value for `Cc1cc(C)n(-c2cc(N3C[C@H]4C[C@@H]3CO4)nc(NC3CCC(F)(F)CC3)n2)n1` [NSSy6638] was “++ (++ means 200 nM-1000 nM)”; that for `Cc1cc(C)n(-c2cc(N3C[C@@H]4C[C@H]3CO4)nc(NC3CCC(F)(F)CC3)n2)n1` [NSSy6639] was “+ (+ means >1 uM)”; that for `Cc1cc(C)n(-c2cc(N3CC4CCC(C3)O4)nc(NC3CCC(F)(F)CC3)n2)n1` [NSSy6644] was “+ (+ means >1 uM)”. Take `Cc1ccn(-c2cc(C(C)O)nc(NC3CCC(F)(F)CC3)n2)n1` (stereo not drawn) [NSSy6650]: the “SC100 (μM)” value is “+ (+ means >1 uM)”. The value for `COC(C)c1cc(-n2ccc(C)n2)nc(NC2CCC(F)(F)CC2)n1` (stereo not drawn) [NSSy6651] was “+ (+ means >1 uM)”; that for `Cc1cc(C)n(-c2cc(-n3nc(C)cc3C)nc(NC3CCC(F)(F)CC3)n2)n1` [NSSy6654] was “+ (+ means >1 uM)”. As to `COCc1cc(-n2ccc(C(F)(F)F)n2)nc(NC2CCC(F)(F)CC2)n1` [NSSy6674, N-(4,4-difluorocyclohexyl)-4-(methoxymethyl)-6-(3-(trifluoromethyl)-1H-pyrazol-1-yl)pyrimidin-2-amine], the “SC100 (μM)” value was “+ (+ means >1 uM)”. The value for `COCCOc1cc(-n2ccc(C)n2)nc(NC2CCC(F)(F)CC2)n1` [NSSy6675] was “+ (+ means >1 uM)”; that for `Cc1ccn(-c2cc(N(C)C)nc(NC3CCC(F)(F)CC3)n2)n1` [NSSy6677] was “+ (+ means >1 uM)”. The same measure for `Cc1ccn(-c2cc(N3CCNCC3)nc(NC3CCC(F)(F)CC3)n2)n1` [NSSy6679]: “++ (++ means 200 nM-1000 nM)”; for `Cc1ccn(-c2cc(C(=O)O)nc(NC3CCC(F)(F)CC3)n2)n1` [NSSy6684, 2-((4,4-difluorocyclohexyl)amino)-6-(3-methyl-1H-pyrazol-1-yl)pyrimidine-4-carboxylic acid]: “+ (+ means >1 uM)”; for `Cc1ccn(-c2cc(OCCN(C)C)nc(NC3CCC(F)(F)CC3)n2)n1` [NSSy6686]: “++ (++ means 200 nM-1000 nM)”. The value for `CNc1cc(-n2ccc(C)n2)nc(NC2CCC(F)(F)CC2)n1` [NSSy6688] was “++ (++ means 200 nM-1000 nM)”; that for `COC(C)c1cc(-c2nc(C)cs2)nc(NC2CCC(F)(F)CC2)n1` (stereo not drawn) [NSSy6697, N-(4,4-difluorocyclohexyl)-4-(1-methoxyethyl)-6-(4-methylthiazol-2-yl)pyrimidin-2-amine] was “+ (+ means >1 uM)”; that for `Cc1ccn(-c2cc(N)nc(NC3CCC(F)(F)CC3)n2)n1` [NSSy6698, N2-(4,4-difluorocyclohexyl)-6-(3-methyl-1H-pyrazol-1-yl)pyrimidine-2,4-diamine] was “+ (+ means >1 uM)”. Take `COCCNc1cc(-n2ccc(C)n2)nc(NC2CCC(F)(F)CC2)n1` [NSSy6700]: the “SC100 (μM)” value was “+ (+ means >1 uM)”. On to `Cc1csc(-c2cc(-c3nc(C)cs3)nc(NC3CCC(F)(F)CC3)n2)n1` [NSSy6704, N-(4,4-difluorocyclohexyl)-4,6-bis(4-methylthiazol-2-yl)pyrimidin-2-amine], for which the “SC100 (μM)” value was “+ (+ means >1 uM)”.

Regarding `Cc1csc(-c2cc(C#N)nc(NC3CCC(F)(F)CC3)n2)n1` [NSSy6710, 2-((4,4-difluorocyclohexyl)amino)-6-(4-methylthiazol-2-yl)pyrimidine-4-carbonitrile], the “SC100 (μM)” value is listed as “+ (+ means >1 uM)”.

Take `COCc1cc(-c2nc(C)cs2)nc(NC2CCC(F)(F)CC2)n1` [NSSy6711, N-(4,4-difluorocyclohexyl)-4-(methoxymethyl)-6-(4-methylthiazol-2-yl)pyrimidin-2-amine]: the “SC100 (μM)” value is recorded as “++ (++ means 200 nM-1000 nM)”. The value for `Cc1ccn(-c2cc(OCCn3nncc3C)cc(NC3CCC(F)(F)CC3)n2)n1` [NSSy6719] was “+++ (+++ means <200 nM)”; that for `Cc1cc(C)n(-c2cc(C#N)nc(NC3CCC(F)(F)CC3)n2)n1` [NSSy6721, 2-((4,4-difluorocyclohexyl)amino)-6-(3,5-dimethyl-1H-pyrazol-1-yl)pyrimidine-4-carbonitrile] was “+ (+ means >1 uM)”. Regarding `Cc1ccn(-c2cc(C#N)nc(NC3CCC(F)(F)CC3)n2)n1` [NSSy6722, 2-((4,4-difluorocyclohexyl)amino)-6-(3-methyl-1H-pyrazol-1-yl)pyrimidine-4-carbonitrile], the “SC100 (μM)” value is given as “+ (+ means >1 uM)”. The same measure for `COCc1cc(-n2nc(C)cc2C)nc(NC2CCC(F)(F)CC2)n1` [NSSy6724]: “++ (++ means 200 nM-1000 nM)”; for `CO[C@@H](C)c1cc(-c2nc(C)cs2)nc(NC2CCC(F)(F)CC2)n1` [NSSy6729, (S)—N-(4,4-difluorocyclohexyl)-4-(1-methoxyethyl)-6-(4-methylthiazol-2-yl)pyrimidin-2-amine]: “+ (+ means >1 uM)”; for `Cc1csc(-c2cc(CO)cc(NC3CCC(F)(F)CC3)n2)n1` [NSSy6730, (2-((4,4-difluorocyclohexyl)amino)-6-(4-methylthiazol-2-yl)pyridin-4-yl) methanol]: “++ (++ means 200 nM-1000 nM)”.

The record behind these values is US10774064B2 (Cadent Therapeutics, Inc., priority 2016, dated 2020).
